# Source: patent US10793580B2, “Substituted pyrazoloazepin-8-ones and their use as phosphodiesterase inhibitors” (LEO Pharma A/S, priority 2016, dated 2020)
# Target: human PDE4D catalytic domain (Homo sapiens (Human), UniProt Q08499)
# Assay: PDE4 Assay (TR-FRET, FAM-cAMP cleavage)
# Type: biochemical
# Conditions: Table 17, Examples 297-316; read-out: PDE4 IC50 range
# Method in brief: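 Readout is Tb-to-FAM time-resolved FRET after nanoparticle capture of AMP, the product of cleaving a cAMP/FAM-cAMP mixture by PDE4D catalytic domain (S380-L740) in the presence of titrated compound. Values are IC50 ranges in nM: concentration halving substrate cleavage relative to controls.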
# Sequence of human PDE4D catalytic domain (Q08499 380-740): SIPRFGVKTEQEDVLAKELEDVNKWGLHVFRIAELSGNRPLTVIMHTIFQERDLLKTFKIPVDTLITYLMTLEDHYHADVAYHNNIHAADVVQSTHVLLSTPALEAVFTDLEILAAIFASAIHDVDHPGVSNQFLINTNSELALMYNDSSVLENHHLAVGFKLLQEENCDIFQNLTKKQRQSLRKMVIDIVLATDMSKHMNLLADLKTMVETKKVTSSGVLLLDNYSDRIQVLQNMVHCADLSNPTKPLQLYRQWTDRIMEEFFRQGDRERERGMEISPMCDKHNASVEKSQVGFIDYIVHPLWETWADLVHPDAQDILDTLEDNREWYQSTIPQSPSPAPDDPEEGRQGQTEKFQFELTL
row,SMILES,IC50
1,"CCn1nc(CC(C)(C)COC(=O)c2cnn(C)c2)c2c1C(=O)NCC1(CCOCC1)C2 [Example 299, [3-(1-ethyl-8-oxo-spiro[6,7-dihydro-4H-pyrazolo[3,4-c]azepine-5,4′-tetrahydropyran]-3-yl)-2,2-dimethyl-propyl] 1-methylpyrazole-4-carboxylate]",< 100 nM

# Same assay, conditions: human PDE4D catalytic domain (UniProt Q08499 [S380-L740]); 50% inhibition of substrate cleavage; read-out: PDE4 IC50 range
row,SMILES,IC50
1,"CCn1nc(CCCOC(=O)c2cccc(F)c2F)c2c1C(=O)NCC1(CCOCC1)C2 [Example 24, 3-(1-ethyl-8-oxo-spiro[6,7-dihydro-4H-pyrazolo[3,4-c]azepine-5,4′-tetrahydropyran]-3-yl)propyl 2,3-difluorobenzoate]",< 100 nM
2,"CCn1nc(CCCOC(=O)c2ccc(S(=O)(=O)C3CCCC3)cc2)c2c1C(=O)NCC1(CCOCC1)C2 [Example 94, 3-(1-ethyl-8-oxo-spiro[6,7-dihydro-4H-pyrazolo[3,4-c]azepine-5,4′-tetrahydropyran]-3-yl)propyl 4-cyclopentylsulfonylbenzoate]",< 100 nM
3,"CCn1nc(CCCOC(=O)c2ccc(C)cc2OC)c2c1C(=O)NCC1(CCOCC1)C2 [Example 34, 3-(1-ethyl-8-oxo-spiro[6,7-dihydro-4H-pyrazolo[3,4-c]azepine-5,4′-tetrahydropyran]-3-yl)propyl 2-methoxy-4-methyl-benzoate]",< 100 nM
4,"CCn1nc(C[C@@H](C)COC(=O)CCSC)c2c1C(=O)NCC1(CCOCC1)C2 [Example 139, [(2R)-3-(1-ethyl-8-oxo-spiro[6,7-dihydro-4H-pyrazolo[3,4-c]azepine-5,4′-tetrahydropyran]-3-yl)-2-methyl-propyl] 3-methylsulfanylpropanoate]",< 100 nM
5,"CCn1nc(CC(C)(C)COC(=O)c2cccc(S(=O)(=O)N3CCCC3)c2)c2c1C(=O)NCC1(CCOCC1)C2 [Example 210, [3-(1-ethyl-8-oxo-spiro[6,7-dihydro-4H-pyrazolo[3,4-c]azepine-5,4′-tetrahydropyran]-3-yl)-2,2-dimethyl-propyl] 3-pyrrolidin-1-ylsulfonylbenzoate]",< 100 nM
6,"CCn1nc(CCCOC(=O)C2CCN(C(=O)OC)CC2)c2c1C(=O)NCC1(CCOCC1)C2 [Example 263, [3-(1-ethyl-8-oxo-spiro[6,7-dihydro-4H-pyrazolo[3,4-c]azepine-5,4′-tetrahydro-pyran]-3-yl)propyl] 1-methoxy-carbonylpiperidine-4-carboxylate]",< 100 nM
7,"CCn1nc(CCCCOC(=O)C(C)C)c2c1C(=O)NCC1(CCOCC1)C2 [Example 121, 4-(1-ethyl-8-oxo-spiro[6,7-dihydro-4H-pyrazolo[3,4-c]azepine-5,4′-tetrahydropyran]-3-yl)butyl 2-methyl-propanoate]",< 100 nM
8,"CCn1nc(CCCOC(=O)c2ccc(OC)c(F)c2)c2c1C(=O)NCC1(CCOCC1)C2 [Example 35, 3-(1-ethyl-8-oxo-spiro[6,7-dihydro-4H-pyrazolo[3,4-c]azepine-5,4′-tetrahydropyran]-3-yl)propyl 3-fluoro-4-methoxy-benzoate]",< 100 nM
9,"CCn1nc(CCCOC(=O)c2cc(C)nc(C)c2)c2c1C(=O)NCC1(CCOCC1)C2 [Example 258, 3-(1-ethyl-8-oxo-spiro[6,7-dihydro-4H-pyrazolo[3,4-c]azepine-5,4′-tetrahydro-pyran]-3-yl)propyl 2,6-dimethylpyridine-4-carboxylate]",< 100 nM
10,"CCn1nc(CCCOC(=O)c2cc(F)ccc2F)c2c1C(=O)NCC1(CCOCC1)C2 [Example 25, 3-(1-ethyl-8-oxo-spiro[6,7-dihydro-4H-pyrazolo[3,4-c]azepine-5,4′-tetrahydropyran]-3-yl)propyl 2,5-difluorobenzoate]",< 100 nM
11,"CCn1nc(CCCOC(=O)c2cccc(S(C)(=O)=O)c2)c2c1C(=O)NCC1(CCOCC1)C2 [Example 63, 3-(1-ethyl-8-oxo-spiro[6,7-dihydro-4H-pyrazolo[3,4-c]azepine-5,4′-tetrahydropyran]-3-yl)propyl 3-methylsulfonylbenzoate]",< 100 nM
